row,melting point,SMILES
1,272 to 274 °C,CCOC(=O)Cn1cc(C[C@H](N)C(=O)O)nn1 [Compound L3]
2,> 220 °C (dec.),N[C@@H](Cn1cc(Cc2ccccc2)nn1)C(=O)O [Compound L7]
3,> 195 °C (dec.),NC(Cc1cn(Cc2ccccc2)nn1)C(=O)O (stereo not drawn) [Compound L1]
